The results in this text go back to US11254781B2, “Urethane-crosslinked biodegradable elastomers” (Massachusetts Institute of Technology, priority 2011, dated 2022).

The data set concerns adult male Wistar rats. Conditions: rat, in vivo.

Protocol: In vivo cardiac biocompatibility of PGSU-SF films All surgical procedures were approved by the IACUC of the Children's Hospital Boston and performed according to the NIH Guidelines for the Care and Use of Laboratory Animals Briefly, adult male Wistar rats (Charles River Laboratories, Wilmington, Mass.) were anesthetized with an intraperitoneal injection of ketamine (100 mg/kg) and xylazine (10 mg/kg), followed by intratracheal intubation. Rats were ventilated with a small animal respirator (Harvard Apparatus, Holliston, Mass.), and anesthesia was maintained with 0.5 to 1.0% isofluorane and 100% oxygen. The heart was accessed through an anterior right-sided thoracotomy, followed by the removal of the pericardial sac. A 1 mm thick and 7 mm in diameter porous PGSU-SF 1:0.3 patch was sutured on the left ventricle (LV) epicardial surface of the rat heart using three 7-0 polypropylene monofilament stitches. The chest wall was closed in layers, and the thoracic cavity evacuated with a 18-gauge intravenous catheter Animals were sacrificed at 1 and 4 weeks (n=4 per time point) after the surgical procedure with CO2, followed by immediate excision of the heart. Tissue sections transverse to the patch and heart surface were stained with Hematoxylin and Eosin stain (H&E). […]

As for “poly (glycerol sebacate urethane) [PGSU-SF 1:0.3]”, the “cardiac function (echocardiography)” value was “No changes” and the chest adhesions result is recorded as “Moderate”.
